Common to all, as to format: binding
Test [1] deals with T1, HeLa cell extract proteins (Homo sapiens, UniProt P15311).
T1 construct: endogenous in cells; host or cells: HeLa cell extract
The settings on record: protein EZR; HeLa.

The target of test [2] is T2, HeLa cell extract proteins (Homo sapiens, UniProt Q13409).
T2 construct: endogenous in cells; host or cells: HeLa cell extract
The settings on record: HeLa; protein DYNC1I2.

The target in test [3] is T3, HeLa cell extract proteins (Homo sapiens, UniProt P62333).
T3 construct: endogenous in cells; host or cells: HeLa cell extract
The settings on record: protein PSMC6; HeLa.

The target of test [4] is T4, HeLa cell extract proteins (Homo sapiens, UniProt P11310).
T4 construct: endogenous in cells; host or cells: HeLa cell extract
T4 sequence (P11310 26-421): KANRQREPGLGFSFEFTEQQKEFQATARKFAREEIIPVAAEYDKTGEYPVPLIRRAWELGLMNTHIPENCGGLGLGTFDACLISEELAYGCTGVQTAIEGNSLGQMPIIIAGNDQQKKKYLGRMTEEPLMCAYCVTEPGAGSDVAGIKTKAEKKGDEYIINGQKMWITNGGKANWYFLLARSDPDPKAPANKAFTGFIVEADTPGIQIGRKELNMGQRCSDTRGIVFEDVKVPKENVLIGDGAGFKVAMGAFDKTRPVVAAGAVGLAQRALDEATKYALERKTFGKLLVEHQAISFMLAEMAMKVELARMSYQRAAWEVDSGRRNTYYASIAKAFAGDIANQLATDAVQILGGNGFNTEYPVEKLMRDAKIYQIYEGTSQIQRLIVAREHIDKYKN
The settings on record: protein ACADM; HeLa.

Test [5] has as its target T5, HeLa cell extract proteins (Homo sapiens, UniProt Q92621).
T5 construct: endogenous in cells; host or cells: HeLa cell extract
The settings on record: captured protein NUP205; HeLa.

In test [6] the target is T6, HeLa cell extract proteins (Homo sapiens, UniProt Q14566).
T6 construct: endogenous in cells; host or cells: HeLa cell extract
T6 sequence (Q14566 1-821): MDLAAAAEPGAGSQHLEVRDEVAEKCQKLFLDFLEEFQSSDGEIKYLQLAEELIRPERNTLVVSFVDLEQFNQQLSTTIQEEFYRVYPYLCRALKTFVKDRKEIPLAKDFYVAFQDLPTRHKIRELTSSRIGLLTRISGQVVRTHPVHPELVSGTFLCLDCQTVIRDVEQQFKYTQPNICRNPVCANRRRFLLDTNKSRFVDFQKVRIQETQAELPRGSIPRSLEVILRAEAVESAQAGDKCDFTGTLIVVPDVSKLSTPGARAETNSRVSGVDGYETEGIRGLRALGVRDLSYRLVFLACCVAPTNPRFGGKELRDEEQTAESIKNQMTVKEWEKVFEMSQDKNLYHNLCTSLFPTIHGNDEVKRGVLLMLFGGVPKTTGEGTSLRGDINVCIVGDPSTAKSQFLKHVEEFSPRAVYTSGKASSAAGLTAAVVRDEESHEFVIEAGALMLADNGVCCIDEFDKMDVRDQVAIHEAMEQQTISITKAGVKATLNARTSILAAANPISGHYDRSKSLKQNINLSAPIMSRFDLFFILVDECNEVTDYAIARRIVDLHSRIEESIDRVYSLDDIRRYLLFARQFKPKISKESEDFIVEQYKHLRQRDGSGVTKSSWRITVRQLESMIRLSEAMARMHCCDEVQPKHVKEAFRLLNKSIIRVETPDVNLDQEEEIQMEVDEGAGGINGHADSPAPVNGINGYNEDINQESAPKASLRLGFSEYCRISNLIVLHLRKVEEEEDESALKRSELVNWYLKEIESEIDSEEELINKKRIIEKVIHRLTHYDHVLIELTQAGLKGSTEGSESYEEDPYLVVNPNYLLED
The settings on record: protein MCM6; HeLa.

Test [7] deals with T7, HeLa cell extract proteins (Homo sapiens, UniProt P78527).
T7 construct: endogenous in cells; host or cells: HeLa cell extract
The settings on record: HeLa; protein PRKDC.

Test [8] concerns the target T8, HeLa cell extract proteins (Homo sapiens, UniProt Q00610).
T8 construct: endogenous in cells; host or cells: HeLa cell extract
The settings on record: protein CLTC; HeLa.

Test [9] deals with T9, HeLa cell extract proteins (Homo sapiens, UniProt Q9Y6K9).
T9 construct: endogenous in cells; host or cells: HeLa cell extract
The settings on record: captured protein IKBKG; HeLa.

Test [10] deals with T10, HeLa cell extract proteins (Homo sapiens, UniProt O43809).
T10 construct: endogenous in cells; host or cells: HeLa cell extract
The settings on record: protein NUDT21; HeLa.

In test [11] the target is T11, HeLa cell extract proteins (Homo sapiens, UniProt P40926).
T11 construct: endogenous in cells; host or cells: HeLa cell extract
T11 sequence (P40926 25-338): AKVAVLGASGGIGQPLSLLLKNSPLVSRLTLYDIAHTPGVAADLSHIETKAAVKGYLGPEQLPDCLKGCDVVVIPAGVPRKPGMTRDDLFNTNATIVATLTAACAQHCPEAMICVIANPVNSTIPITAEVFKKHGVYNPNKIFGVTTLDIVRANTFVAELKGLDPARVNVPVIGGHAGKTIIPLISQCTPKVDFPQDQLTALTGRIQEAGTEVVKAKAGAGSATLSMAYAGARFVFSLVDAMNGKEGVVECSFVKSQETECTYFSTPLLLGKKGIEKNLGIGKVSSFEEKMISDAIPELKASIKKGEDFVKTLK
The settings on record: protein MDH2; HeLa.

Test [12] has as its target T12, HeLa cell extract proteins (Homo sapiens, UniProt O60547).
T12 construct: endogenous in cells; host or cells: HeLa cell extract
T12 sequence (O60547 1-372): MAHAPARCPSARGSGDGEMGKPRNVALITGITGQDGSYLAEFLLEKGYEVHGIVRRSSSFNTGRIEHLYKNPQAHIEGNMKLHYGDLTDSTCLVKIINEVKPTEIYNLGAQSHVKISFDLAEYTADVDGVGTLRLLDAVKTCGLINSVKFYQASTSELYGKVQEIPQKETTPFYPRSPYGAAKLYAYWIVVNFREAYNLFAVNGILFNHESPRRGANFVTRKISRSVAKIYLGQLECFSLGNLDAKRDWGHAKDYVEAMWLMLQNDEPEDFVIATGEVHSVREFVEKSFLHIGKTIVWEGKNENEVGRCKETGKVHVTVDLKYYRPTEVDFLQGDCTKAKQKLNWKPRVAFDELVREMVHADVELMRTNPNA
The settings on record: HeLa; protein GMDS.

Test [13] addresses T13, HeLa cell extract proteins (Homo sapiens, UniProt P51648).
T13 construct: endogenous in cells; host or cells: HeLa cell extract
The settings on record: HeLa; protein ALDH3A2.

T3 sequence (P62333 whole entry): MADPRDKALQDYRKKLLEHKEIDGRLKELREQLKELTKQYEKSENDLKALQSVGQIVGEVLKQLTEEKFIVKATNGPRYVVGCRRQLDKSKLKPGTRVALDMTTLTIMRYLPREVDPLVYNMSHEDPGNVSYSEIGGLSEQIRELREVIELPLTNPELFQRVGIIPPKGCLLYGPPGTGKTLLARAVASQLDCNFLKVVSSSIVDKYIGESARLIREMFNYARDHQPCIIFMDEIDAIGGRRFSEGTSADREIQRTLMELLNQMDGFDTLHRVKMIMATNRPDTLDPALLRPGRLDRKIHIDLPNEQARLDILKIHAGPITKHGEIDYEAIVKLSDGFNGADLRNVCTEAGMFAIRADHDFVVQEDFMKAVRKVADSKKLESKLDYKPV
T7 sequence (P78527 whole entry): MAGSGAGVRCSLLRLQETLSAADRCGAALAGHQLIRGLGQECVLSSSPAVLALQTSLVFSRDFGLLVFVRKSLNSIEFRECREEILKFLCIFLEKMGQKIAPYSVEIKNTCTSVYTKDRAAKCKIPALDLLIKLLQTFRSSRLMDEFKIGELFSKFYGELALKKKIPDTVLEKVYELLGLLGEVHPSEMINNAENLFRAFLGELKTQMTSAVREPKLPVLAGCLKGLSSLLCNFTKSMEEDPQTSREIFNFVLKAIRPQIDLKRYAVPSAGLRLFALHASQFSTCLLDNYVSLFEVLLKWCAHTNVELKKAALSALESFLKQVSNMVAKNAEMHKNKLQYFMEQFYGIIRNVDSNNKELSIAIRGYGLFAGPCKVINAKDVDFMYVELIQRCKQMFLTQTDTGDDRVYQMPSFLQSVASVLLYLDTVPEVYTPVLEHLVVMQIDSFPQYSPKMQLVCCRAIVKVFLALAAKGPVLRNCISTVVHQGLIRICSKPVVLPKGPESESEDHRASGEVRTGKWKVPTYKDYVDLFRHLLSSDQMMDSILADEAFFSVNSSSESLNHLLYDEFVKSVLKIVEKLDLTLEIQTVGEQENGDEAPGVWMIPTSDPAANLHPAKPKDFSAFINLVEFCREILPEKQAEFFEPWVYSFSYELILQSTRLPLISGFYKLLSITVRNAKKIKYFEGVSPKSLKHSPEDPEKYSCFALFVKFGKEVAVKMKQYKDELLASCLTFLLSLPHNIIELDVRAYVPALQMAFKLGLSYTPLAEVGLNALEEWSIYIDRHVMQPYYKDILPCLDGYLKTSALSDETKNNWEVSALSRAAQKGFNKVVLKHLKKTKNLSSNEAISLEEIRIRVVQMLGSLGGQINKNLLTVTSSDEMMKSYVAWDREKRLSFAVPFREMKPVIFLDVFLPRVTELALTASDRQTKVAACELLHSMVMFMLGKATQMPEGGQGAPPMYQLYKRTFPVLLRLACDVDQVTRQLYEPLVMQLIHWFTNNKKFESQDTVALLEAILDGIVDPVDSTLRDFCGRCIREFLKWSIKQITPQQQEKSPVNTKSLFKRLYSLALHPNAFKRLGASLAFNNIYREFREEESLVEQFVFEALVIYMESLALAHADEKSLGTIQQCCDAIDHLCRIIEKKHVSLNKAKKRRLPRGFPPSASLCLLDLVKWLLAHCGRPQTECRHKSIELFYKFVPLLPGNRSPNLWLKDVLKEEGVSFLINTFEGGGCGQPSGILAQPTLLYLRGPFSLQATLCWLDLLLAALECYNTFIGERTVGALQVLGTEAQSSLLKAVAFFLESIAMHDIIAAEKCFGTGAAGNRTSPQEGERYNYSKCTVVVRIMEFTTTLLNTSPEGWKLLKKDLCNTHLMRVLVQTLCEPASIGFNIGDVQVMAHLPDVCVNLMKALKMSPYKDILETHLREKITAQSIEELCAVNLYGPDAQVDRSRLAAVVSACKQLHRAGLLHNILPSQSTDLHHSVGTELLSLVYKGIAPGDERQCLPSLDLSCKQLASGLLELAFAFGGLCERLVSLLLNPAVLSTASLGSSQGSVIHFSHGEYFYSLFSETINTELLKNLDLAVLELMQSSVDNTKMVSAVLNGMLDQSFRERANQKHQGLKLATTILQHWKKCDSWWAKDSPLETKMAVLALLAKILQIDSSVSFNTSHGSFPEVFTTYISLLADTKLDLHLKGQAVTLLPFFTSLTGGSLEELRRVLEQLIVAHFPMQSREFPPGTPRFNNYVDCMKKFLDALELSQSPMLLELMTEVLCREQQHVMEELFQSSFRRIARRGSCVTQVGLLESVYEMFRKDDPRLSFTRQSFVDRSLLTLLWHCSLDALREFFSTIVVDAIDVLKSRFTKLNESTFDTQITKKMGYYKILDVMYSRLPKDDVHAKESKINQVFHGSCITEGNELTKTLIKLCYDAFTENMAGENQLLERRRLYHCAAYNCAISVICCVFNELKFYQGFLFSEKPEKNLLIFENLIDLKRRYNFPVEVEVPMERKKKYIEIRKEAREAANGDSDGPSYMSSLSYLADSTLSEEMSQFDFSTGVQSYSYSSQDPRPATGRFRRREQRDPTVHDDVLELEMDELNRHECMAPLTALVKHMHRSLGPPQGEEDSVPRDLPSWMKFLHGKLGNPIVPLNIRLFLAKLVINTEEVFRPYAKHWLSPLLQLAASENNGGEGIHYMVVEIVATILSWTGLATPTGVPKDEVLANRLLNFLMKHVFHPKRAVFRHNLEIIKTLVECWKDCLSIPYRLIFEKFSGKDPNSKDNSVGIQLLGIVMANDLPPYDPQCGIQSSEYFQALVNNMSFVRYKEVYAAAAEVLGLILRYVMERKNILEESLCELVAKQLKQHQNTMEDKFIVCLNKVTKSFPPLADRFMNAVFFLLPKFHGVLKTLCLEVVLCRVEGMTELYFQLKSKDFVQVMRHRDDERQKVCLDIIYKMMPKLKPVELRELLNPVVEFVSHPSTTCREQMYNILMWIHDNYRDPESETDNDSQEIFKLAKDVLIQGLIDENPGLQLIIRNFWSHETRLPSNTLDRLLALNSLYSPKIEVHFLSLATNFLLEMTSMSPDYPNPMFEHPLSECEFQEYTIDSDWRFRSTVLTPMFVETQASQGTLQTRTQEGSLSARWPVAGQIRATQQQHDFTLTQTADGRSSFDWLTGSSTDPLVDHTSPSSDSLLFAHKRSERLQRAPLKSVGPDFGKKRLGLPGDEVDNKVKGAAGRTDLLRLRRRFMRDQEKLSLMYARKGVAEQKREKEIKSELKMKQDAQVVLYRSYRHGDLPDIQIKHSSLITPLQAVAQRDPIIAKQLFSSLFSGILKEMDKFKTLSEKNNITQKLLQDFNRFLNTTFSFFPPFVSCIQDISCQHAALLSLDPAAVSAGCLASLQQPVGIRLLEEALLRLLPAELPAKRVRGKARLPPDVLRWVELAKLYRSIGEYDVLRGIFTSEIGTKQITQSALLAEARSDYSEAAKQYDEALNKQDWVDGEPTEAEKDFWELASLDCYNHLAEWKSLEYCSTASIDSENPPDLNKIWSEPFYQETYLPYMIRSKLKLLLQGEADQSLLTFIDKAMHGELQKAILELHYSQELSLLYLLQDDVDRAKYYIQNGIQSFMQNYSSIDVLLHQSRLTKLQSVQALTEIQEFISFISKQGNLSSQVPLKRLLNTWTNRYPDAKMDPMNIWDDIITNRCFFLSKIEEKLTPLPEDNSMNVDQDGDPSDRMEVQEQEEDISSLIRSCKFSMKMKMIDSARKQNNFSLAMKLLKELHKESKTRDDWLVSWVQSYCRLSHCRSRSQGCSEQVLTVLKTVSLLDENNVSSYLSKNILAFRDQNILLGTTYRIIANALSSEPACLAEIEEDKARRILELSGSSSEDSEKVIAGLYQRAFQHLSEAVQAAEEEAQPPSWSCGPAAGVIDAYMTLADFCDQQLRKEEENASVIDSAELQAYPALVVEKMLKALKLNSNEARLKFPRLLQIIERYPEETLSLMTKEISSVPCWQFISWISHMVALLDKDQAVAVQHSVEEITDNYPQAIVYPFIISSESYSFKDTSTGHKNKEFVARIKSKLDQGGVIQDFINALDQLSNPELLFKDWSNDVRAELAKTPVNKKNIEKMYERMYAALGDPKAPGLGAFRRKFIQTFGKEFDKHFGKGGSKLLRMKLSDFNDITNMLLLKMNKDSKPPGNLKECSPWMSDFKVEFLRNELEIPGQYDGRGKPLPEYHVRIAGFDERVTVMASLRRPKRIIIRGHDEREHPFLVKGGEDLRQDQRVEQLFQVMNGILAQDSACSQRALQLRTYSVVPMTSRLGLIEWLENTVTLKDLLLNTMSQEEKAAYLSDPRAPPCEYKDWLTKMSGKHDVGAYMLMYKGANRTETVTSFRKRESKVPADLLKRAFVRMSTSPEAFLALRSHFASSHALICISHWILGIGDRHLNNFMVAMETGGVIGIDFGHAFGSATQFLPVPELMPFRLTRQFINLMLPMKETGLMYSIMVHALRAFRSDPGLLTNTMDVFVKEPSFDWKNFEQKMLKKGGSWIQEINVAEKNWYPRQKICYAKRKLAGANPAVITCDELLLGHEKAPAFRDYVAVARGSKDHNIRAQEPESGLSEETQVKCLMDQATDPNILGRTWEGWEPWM
T10 sequence (O43809 whole entry): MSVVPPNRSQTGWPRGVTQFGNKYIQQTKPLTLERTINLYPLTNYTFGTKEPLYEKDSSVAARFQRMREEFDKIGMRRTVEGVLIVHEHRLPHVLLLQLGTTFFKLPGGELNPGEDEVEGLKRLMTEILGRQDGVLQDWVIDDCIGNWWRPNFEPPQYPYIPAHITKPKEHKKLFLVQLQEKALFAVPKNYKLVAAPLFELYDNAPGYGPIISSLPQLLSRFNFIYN

For `Nc1nc2cccc(-c3ccccc3)c2n1Cc1ccc(Cl)c(Cl)c1` [compound 3], the “fold changes relative to vehicle control” value in test [1] is recorded as 0.8; in test [2] it was 0.89; in test [3], 1.2; in test [4], 1; in [5], 1.18; in [6], 0.91. For the same compound, the “fold changes relative to vehicle control” value in test [7] is on record as 1.2; in test [8], 1.2; in [9], 0.9; in test [10], 0.99; in test [11] it was 0.92; in test [12], 1.25. Further, in test [13], the “fold changes relative to vehicle control” value is reported as 1.05.

The values are drawn from article PMC6199744, “Development of Chemical Proteomics for the Folateome and Analysis of the Kinetoplastid Folateome” (ACS Infectious Diseases, 2018).
